In patent publication US20210254056A1, “IDENTIFICATION AND TARGETED MODULATION OF GENE SIGNALING NETWORKS” (CAMP4 THERAPEUTICS CORPORATION, priority 2017, published 2021):

System: hepatocytes
Assay: RNA-seq of hepatocytes treated with Phase III failure compounds
Conditions: for significant changes in gene expression: RNA-seq of Table 36, FPKM≥0.5, log 2(fold-change)≥1, q-value≤0.05; for significant modulation of expression of any of the genes analyzed: RNA-seq, p≤0.05
Procedure: RNA-seq was performed to determine the effects of the compounds on hepatocytes.
Significance was determined by the criteria of FPKM≥0.5, a log 2(fold-change)≥1, and a […].

## C=CCNC1=C2C[C@@H](C)C[C@H](OC)[C@H](O)[C@@H](C)/C=C(\C)[C@H](OC(N)=O)[C@@H](OC)/C=C\C=C(/C)C(=O)NC(=CC1=O)C2=O [17-MG (Tanespimycin), Tanespimycin]
  RNA-seq results, CYP2B6 expression: 1.32
  RNA-seq results, CYP2C19 expression: 0.34
  RNA-seq results, CYP2D6 expression: 0.06
  RNA-seq results, CYP3A4 expression: 2.50
  RNA-seq results, CYP7B1 expression: 0.43
  RNA-seq results, CYP39A1 expression: 1.38
  RNA-seq results: CYP2B6 expression: 0.2
  RNA-seq results: CYP2C19 expression: −1.4
  RNA-seq results: CYP2D6 expression: 0.27
  RNA-seq results: CYP3A4 expression: 0.96
  RNA-seq results: CYP7B1 expression: −1.05
  RNA-seq results: CYP39A1 expression: −0.62
Gene A1BG, hepatocytes
  RNA-seq results: A1BG expression: −0.10
Gene AGTR1, hepatocytes
  RNA-seq results: AGTR1 expression: −0.03
Gene AGXT, hepatocytes
  RNA-seq results: AGXT expression: 0.27
Gene AHI1, hepatocytes
  RNA-seq results: AHI1 expression: 0.39
Gene AMPD3, hepatocytes
  RNA-seq results: AMPD3 expression: 1.15
Gene AMT, hepatocytes
  RNA-seq results: AMT expression: 0.31
Gene ANGPTL3, hepatocytes
  RNA-seq results: ANGPTL3 expression: 0.06
Gene ANKS4B, hepatocytes
  RNA-seq results: ANKS4B expression: 1.12
Gene ANKS6, hepatocytes
  RNA-seq results: ANKS6 expression: −0.15
Gene ANPEP, hepatocytes
  RNA-seq results: ANPEP expression: −0.06
Gene AOC2, hepatocytes
  RNA-seq results: AOC2 expression: 0.24
Gene APOA2, hepatocytes
  RNA-seq results: APOA2 expression: −0.64
Gene APOA5, hepatocytes
  RNA-seq results: APOA5 expression: 0.07
Gene APOB, hepatocytes
  RNA-seq results: APOB expression: 2.13
Gene COG5, hepatocytes
  RNA-seq results: COG5 expression: −1.94
Gene COG6, hepatocytes
  RNA-seq results: COG6 expression: −0.28
Gene COL1A1, hepatocytes
  RNA-seq results: COL1A1 expression: 0.45
Gene COX6A1, hepatocytes
  RNA-seq results: COX6A1 expression: 0.27
Gene CP, hepatocytes
  RNA-seq results: CP expression: 0.19
Gene CPS1, hepatocytes
  RNA-seq results: CPS1 expression: −0.79
Gene CPT1A, hepatocytes
  RNA-seq results: CPT1A expression: −1.18
Gene CPT2, hepatocytes
  RNA-seq results: CPT2 expression: 1.3
Gene CROT, hepatocytes
  RNA-seq results: CROT expression: 0.23
Gene CSPP1, hepatocytes
  RNA-seq results: CSPP1 expression: −0.45
Gene CTC1, hepatocytes
  RNA-seq results: CTC1 expression: 0.65
Gene CTDSP2, hepatocytes
  RNA-seq results: CTDSP2 expression: −0.36
Gene CTH, hepatocytes
  RNA-seq results: CTH expression: 1.32
Gene CTNS, hepatocytes
  RNA-seq results: CTNS expression: −0.39
Gene CTSF, hepatocytes
  RNA-seq results: CTSF expression: 0.01
Gene CTSK, hepatocytes
  RNA-seq results: CTSK expression: 1.01
Gene CYB5A, hepatocytes
  RNA-seq results: CYB5A expression: −0.54
Gene CYB5R3, hepatocytes
  RNA-seq results: CYB5R3 expression: −0.57
Gene CYP27A1, hepatocytes
  RNA-seq results: CYP27A1 expression: −0.12
Gene DAO, hepatocytes
  RNA-seq results: DAO expression: −0.79
Gene DBT, hepatocytes
  RNA-seq results: DBT expression: −0.27
Gene DCDC2, hepatocytes
  RNA-seq results: DCDC2 expression: −2.14
Gene DCXR, hepatocytes
  RNA-seq results: DCXR expression: −0.21
Gene FABP1, hepatocytes
  RNA-seq results: FABP1 expression: −0.95
Gene FADD, hepatocytes
  RNA-seq results: FADD expression: −0.41
Gene FAM111A, hepatocytes
  RNA-seq results: FAM111A expression: 0.93
Gene FAM111B, hepatocytes
  RNA-seq results: FAM111B expression: −1.24
Gene FAN1, hepatocytes
  RNA-seq results: FAN1 expression: 0.32
Gene FARS2, hepatocytes
  RNA-seq results: FARS2 expression: −3
Gene FASLG, hepatocytes
  RNA-seq results: FASLG expression: −1.15
Gene FGA, hepatocytes
  RNA-seq results: FGA expression: 0.46
Gene FGD1, hepatocytes
  RNA-seq results: FGD1 expression: −1.37
Gene FGFR2, hepatocytes
  RNA-seq results: FGFR2 expression: −2.48
Gene FIG4, hepatocytes
  RNA-seq results: FIG4 expression: −0.69
Gene FIS1, hepatocytes
  RNA-seq results: FIS1 expression: −0.22
Gene FTCD, hepatocytes
  RNA-seq results: FTCD expression: −1.66
Gene FTH1, hepatocytes
  RNA-seq results: FTH1 expression: −0.49
Gene FUCA1, hepatocytes
  RNA-seq results: FUCA1 expression: 0.43
Gene FXN, hepatocytes
  RNA-seq results: FXN expression: −1.04
Gene G6PC3, hepatocytes
  RNA-seq results: G6PC3 expression: −0.38
Gene G6PC, hepatocytes
  RNA-seq results: G6PC expression: −0.03
Gene G6PD, hepatocytes
  RNA-seq results: G6PD expression: 1.7
Gene GALK1, hepatocytes
  RNA-seq results: GALK1 expression: −0.7
Gene GALK2, hepatocytes
  RNA-seq results: GALK2 expression: −1.47
Gene GALT, hepatocytes
  RNA-seq results: GALT expression: −0.43
Gene GATA6, hepatocytes
  RNA-seq results: GATA6 expression: −0.77
Gene GATM, hepatocytes
  RNA-seq results: GATM expression: −1.11
Gene GBA, hepatocytes
  RNA-seq results: GBA expression: −0.38
Gene GBE1, hepatocytes
  RNA-seq results: GBE1 expression: −2.25
Gene GCH1, hepatocytes
  RNA-seq results: GCH1 expression: 0.43
Gene GCKR, hepatocytes
  RNA-seq results: GCKR expression: −0.16
Gene GCLC, hepatocytes
  RNA-seq results: GCLC expression: −0.18
Gene GOSH, hepatocytes
  RNA-seq results: GOSH expression: −1.49
Gene RRM2B, hepatocytes
  RNA-seq results: RRM2B: 1.19
Gene RSAD1, hepatocytes
  RNA-seq results: RSAD1: −0.23
Gene SAMHD1, hepatocytes
  RNA-seq results: SAMHD1: −0.05
Gene SC5D, hepatocytes
  RNA-seq results: SC5D: 1.56
Gene SCARB1, hepatocytes
  RNA-seq results: SCARB1: −0.35
Gene SCN9A, hepatocytes
  RNA-seq results: SCN9A: −0.22
Gene SDCCAG8, hepatocytes
  RNA-seq results: SDCCAG8: 0.11
Gene SEPN1, hepatocytes
  RNA-seq results: SEPN1: −0.07
Gene SERAC1, hepatocytes
  RNA-seq results: SERAC1: 0.26
Gene SERPINA1, hepatocytes
  RNA-seq results: SERPINA1: −0.05
Gene SERPING1, hepatocytes
  RNA-seq results: SERPING1: 0.28
Gene SERPINI1, hepatocytes
  RNA-seq results: SERPINI1: 0.22
Gene SETBP1, hepatocytes
  RNA-seq results: SETBP1: 0.54
Gene SFXN4, hepatocytes
  RNA-seq results: SFXN4: −0.14
Gene SLC10A1, hepatocytes
  RNA-seq results: SLC10A1: 1.13
Gene SLC10A3, hepatocytes
  RNA-seq results: SLC10A3: −1.25
Gene SLC10A5, hepatocytes
  RNA-seq results: SLC10A5: 2.20
Gene SLC10A7, hepatocytes
  RNA-seq results: SLC10A7: 0.55
Gene SLC11A2, hepatocytes
  RNA-seq results: SLC11A2: 0.65
Gene SLC19A1, hepatocytes
  RNA-seq results: SLC19A1: −0.71
Gene SLC19A2, hepatocytes
  RNA-seq results: SLC19A2: 0.62
Gene SLC19A3, hepatocytes
  RNA-seq results: SLC19A3: 0.68
Gene SLC22A1, hepatocytes
  RNA-seq results: SLC22A1: 0.08
Gene SLC22A5, hepatocytes
  RNA-seq results: SLC22A5: −0.72
Gene SLC25A1, hepatocytes
  RNA-seq results: SLC25A1: −0.29
Gene SLC25A10, hepatocytes
  RNA-seq results: SLC25A10: −0.45
Gene SLC25A12, hepatocytes
  RNA-seq results: SLC25A12: −0.06
Gene SLC25A13, hepatocytes
  RNA-seq results: SLC25A13: 0.72
Gene SLC25A15, hepatocytes
  RNA-seq results: SLC25A15: 0.58
Gene SLC25A19, hepatocytes
  RNA-seq results: SLC25A19: −0.70
Gene SLC25A20, hepatocytes
  RNA-seq results: SLC25A20: −0.52
Gene SLC25A29, hepatocytes
  RNA-seq results: SLC25A29: −1.07
Gene SLC25A32, hepatocytes
  RNA-seq results: SLC25A32: −0.50

## COC[C@@H](c1ccc(C(F)(F)F)cc1)N1CCN(C2(C)CCN(C(=O)c3c(C)ncnc3C)CC2)C[C@@H]1C [Vicriviroc (maleate), Vicriviroc]
  significant changes in gene expression: not observed to cause any significant changes in gene expression
hepatocytes
  significant modulation of expression of any of the genes analyzed: not observed to significantly modulate expression

## CNC1(C)[C@H]2CCC(C2)C1(C)C.Cl (stereo partly drawn) [S-(+)-MecaMylaMine Hydrochloride]
  significant changes in gene expression: not observed to cause any significant changes in gene expression
hepatocytes
  significant modulation of expression of any of the genes analyzed: not observed to significantly modulate expression
